Where two headings read alike, the source gives them in different places.
Tests used:
Format in all cases: in vivo
[1] = tested on: kochia (Kochia scoparia); assay: Test C postemergence greenhouse test, plant response rating 0-100; details: Bassia scoparia, post-emergence
How it was run: (§1)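 Scores run from 0, meaning no effect, to 100, meaning complete control, and come from visual comparison with untreated controls. Treatment was a postemergence application to plants 2–18 cm tall. Assessment followed 13 to 15 days of greenhouse growth.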

[2] = tested on: chickweed (common chickweed, Stellaria media); assay: as above; details: Stellaria media, post-emergence
How it was run: as §1

[3] = tested on: wild oat (Avena fatua); assay: as above; details: Avena fatua, post-emergence
How it was run: as §1

[4] = tested on: soybean (Glycine max); assay: Test C pre-/postemergence greenhouse test, plant response rating 0-100; details: Glycine max; for plant injury at 62 g/ha: 62 g ai/ha; for plant injury at 125 g/ha: 125 g ai/ha; for plant injury at 250 g/ha: 250 g ai/ha; for plant injury at 500 g/ha: 500 g ai/ha
How it was run: (§2)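 Seeds were sown in a loam soil–sand blend and sprayed preemergence with test chemicals in a non-phytotoxic solvent mixture containing surfactant; postemergence plants in peat/vermiculite medium were treated at 2–18 cm (1- to 4-leaf stage). After 13 to 15 days in the greenhouse, injury was rated visually against untreated controls.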

[5] = tested on: winter wheat (Triticum aestivum); assay: as above; details: Triticum aestivum; for plant injury at 62 g/ha: 62 g ai/ha; for plant injury at 125 g/ha: 125 g ai/ha; for plant injury at 250 g/ha: 250 g ai/ha; for plant injury at 500 g/ha: 500 g ai/ha
How it was run: as §2

[6] = tested on: johnsongrass (Sorghum halepense); assay: as above; details: Sorghum halepense; for pest or weed control at 62 g/ha: 62 g ai/ha; for pest or weed control at 125 g/ha: 125 g ai/ha; for pest or weed control at 250 g/ha: 250 g ai/ha; for pest or weed control at 500 g/ha: 500 g ai/ha
How it was run: as §2

[7] = tested on: velvetleaf (Abutilon theophrasti); assay: as above; details: Abutilon theophrasti; for pest or weed control at 62 g/ha: 62 g ai/ha; for pest or weed control at 125 g/ha: 125 g ai/ha; for pest or weed control at 250 g/ha: 250 g ai/ha; for pest or weed control at 500 g/ha: 500 g ai/ha
How it was run: as §2

[8] = tested on: morningglory (Ipomoea coccinea); assay: as above; details: Ipomoea; for pest or weed control at 62 g/ha: 62 g ai/ha; for pest or weed control at 125 g/ha: 125 g ai/ha; for pest or weed control at 250 g/ha: 250 g ai/ha; for pest or weed control at 500 g/ha: 500 g ai/ha
How it was run: as §2

[9] = tested on: blackgrass (Alopecurus myosuroides); assay: as above; details: Alopecurus myosuroides; for pest or weed control at 62 g/ha: 62 g ai/ha; for pest or weed control at 125 g/ha: 125 g ai/ha; for pest or weed control at 250 g/ha: 250 g ai/ha; for pest or weed control at 500 g/ha: 500 g ai/ha
How it was run: as §2

[10] = tested on: giant foxtail (Setaria faberii); assay: as above; details: Setaria faberi; for pest or weed control at 62 g/ha: 62 g ai/ha; for pest or weed control at 125 g/ha: 125 g ai/ha; for pest or weed control at 250 g/ha: 250 g ai/ha; for pest or weed control at 500 g/ha: 500 g ai/ha
How it was run: as §2

[11] = tested on: pigweed (Amaranthus retroflexus); assay: as above; details: Amaranthus retroflexus; for pest or weed control at 62 g/ha: 62 g ai/ha; for pest or weed control at 125 g/ha: 125 g ai/ha; for pest or weed control at 250 g/ha: 250 g ai/ha; for pest or weed control at 500 g/ha: 500 g ai/ha
How it was run: as §2

[12] = tested on: corn (Zea mays); assay: as above; details: Zea mays; for Corn plant response rating (crop injury, 0 = no effect, 100 = complete kill) at 250 g/ha: 250 g ai/ha; for Corn plant response rating (crop injury, 0 = no effect, 100 = complete kill) at 500 g/ha: 500 g ai/ha
How it was run: as §2

[13] = tested on: lambsquarters (Chenopodium album); assay: as above; details: Chenopodium album; for pest or weed control at 62 g/ha: 62 g ai/ha; for pest or weed control at 125 g/ha: 125 g ai/ha; for pest or weed control at 250 g/ha: 250 g ai/ha; for pest or weed control at 500 g/ha: 500 g ai/ha
How it was run: as §2

[14] = post-emergence, Postemergence, read-out: Plant response rating (0 to 100), Soybean
[15] = post-emergence, Postemergence, scale 0 to 100
[16] = pre-emergence, Preemergence, read-out: Plant response rating, Soybean
[17] = post-emergence, Postemergence, read-out: Plant response rating (0 to 100), Wheat
[18] = pre-emergence, Preemergence, read-out: Plant response rating, Wheat
[19] = post-emergence, Postemergence, read-out: Plant response rating (0 to 100), Johnsongrass
[20] = pre-emergence, Preemergence, read-out: Plant response rating, Johnsongrass
[21] = post-emergence, Postemergence, read-out: Plant response rating (0 to 100), Velvetleaf
[22] = pre-emergence, Preemergence, read-out: Plant response rating, Velvetleaf
[23] = post-emergence, Postemergence, read-out: Plant response rating (0 to 100), Morningglory
[24] = pre-emergence, Preemergence, read-out: Plant response rating, Morningglory
[25] = pre-emergence, Preemergence, read-out: Plant response rating, Blackgrass
[26] = post-emergence, Postemergence, read-out: Plant response rating (0 to 100), Foxtail, Giant
[27] = pre-emergence, Preemergence, read-out: Plant response rating, Foxtail, Giant
[28] = post-emergence, Postemergence, read-out: Plant response rating (0 to 100), Pigweed
[29] = pre-emergence, Preemergence, read-out: Plant response rating, Pigweed
[30] = post-emergence, Postemergence, read-out: Plant response rating (0 to 100), Lambsquarters
[31] = pre-emergence, Preemergence, read-out: Plant response rating, Lambsquarters

SMILES: CCOC(OCC)(c1ccccc1)c1c[nH]nc1-c1cc(Cl)cc(Cl)c1 [Compound 14, 3-(3,5-dichlorophenyl)-4-(diethoxyphenylmethyl)-1H-pyrazole]
- pest or weed control at 62 g/ha ([1]; 62 g ai/ha): 85%
- pest or weed control at 125 g/ha ([1]; 125 g ai/ha): 90%
- pest or weed control at 250 g/ha ([1]; 250 g ai/ha, scale 0 to 100): 90%
- pest or weed control at 500 g/ha ([1]; 500 g ai/ha, scale 0 to 100): 90%
- pest or weed control at 62 g/ha ([2]; 62 g ai/ha): 90%
- pest or weed control at 125 g/ha ([2]; 125 g ai/ha): 100%
- pest or weed control at 250 g/ha ([2]; 250 g ai/ha, scale 0 to 100): 100%
- pest or weed control at 500 g/ha ([2]; 500 g ai/ha, scale 0 to 100): 95%
- pest or weed control at 62 g/ha ([3]; 62 g ai/ha): 0%
- pest or weed control at 125 g/ha ([3]; 125 g ai/ha): 0%
- pest or weed control at 250 g/ha ([3]; 250 g ai/ha, scale 0 to 100): 0%
- pest or weed control at 500 g/ha ([3]; 500 g ai/ha, scale 0 to 100): 5%
- plant injury at 62 g/ha [4, 14]: 0%
- plant injury at 125 g/ha [4, 14]: 0%
- plant injury at 250 g/ha [4, 15]: 0%
- plant injury at 500 g/ha [4, 15]: 0%
- plant injury at 62 g/ha [4, 16]: 0%
- plant injury at 125 g/ha [4, 16]: 35%
- plant injury at 250 g/ha ([4]; pre-emergence, Preemergence): 40%
- plant injury at 500 g/ha ([4]; pre-emergence, Preemergence): 10%
- plant injury at 62 g/ha [5, 17]: 0%
- plant injury at 125 g/ha [5, 17]: 0%
- plant injury at 250 g/ha [5, 15]: 0%
- plant injury at 500 g/ha [5, 15]: 5%
- plant injury at 62 g/ha [5, 18]: 0%
- plant injury at 125 g/ha [5, 18]: 0%
- plant injury at 250 g/ha ([5]; pre-emergence, Preemergence): 0%
- plant injury at 500 g/ha ([5]; pre-emergence, Preemergence): 0%
- pest or weed control at 62 g/ha [6, 19]: 0%
- pest or weed control at 125 g/ha [6, 19]: 0%
- pest or weed control at 250 g/ha [6, 15]: 0%
- pest or weed control at 500 g/ha [6, 15]: 0%
- pest or weed control at 62 g/ha [6, 20]: 0%
- pest or weed control at 125 g/ha [6, 20]: 0%
- pest or weed control at 250 g/ha ([6]; pre-emergence, Preemergence): 0%
- pest or weed control at 500 g/ha ([6]; pre-emergence, Preemergence): 0%
- pest or weed control at 62 g/ha [7, 21]: 75%
- pest or weed control at 125 g/ha [7, 21]: 75%
- pest or weed control at 250 g/ha [7, 15]: 80%
- pest or weed control at 500 g/ha [7, 15]: 85%
- pest or weed control at 62 g/ha [7, 22]: 75%
- pest or weed control at 125 g/ha [7, 22]: 50%
- pest or weed control at 250 g/ha ([7]; pre-emergence, Preemergence): 85%
- pest or weed control at 500 g/ha ([7]; pre-emergence, Preemergence): 98%
- pest or weed control at 62 g/ha [8, 23]: 0%
- pest or weed control at 125 g/ha [8, 23]: 0%
- pest or weed control at 250 g/ha [8, 15]: 0%
- pest or weed control at 500 g/ha [8, 15]: 5%
- pest or weed control at 62 g/ha [8, 24]: 0%
- pest or weed control at 125 g/ha [8, 24]: 0%
- pest or weed control at 250 g/ha ([8]; pre-emergence, Preemergence): 0%
- pest or weed control at 500 g/ha ([8]; pre-emergence, Preemergence): 0%
- pest or weed control at 62 g/ha ([9]; post-emergence, Postemergence, read-out: Plant response rating (0 to 100), Blackgrass): 0%
- pest or weed control at 125 g/ha ([9]; post-emergence, Postemergence, scale 0 to 100, read-out: Plant response rating, Blackgrass): 0%
- pest or weed control at 250 g/ha [9, 15]: 0%
- pest or weed control at 500 g/ha [9, 15]: 0%
- pest or weed control at 62 g/ha [9, 25]: 50%
- pest or weed control at 125 g/ha [9, 25]: 20%
- pest or weed control at 250 g/ha ([9]; pre-emergence, Preemergence): 0%
- pest or weed control at 500 g/ha ([9]; pre-emergence, Preemergence): 30%
- pest or weed control at 62 g/ha [10, 26]: 0%
- pest or weed control at 125 g/ha [10, 26]: 0%
- pest or weed control at 250 g/ha [10, 15]: 0%
- pest or weed control at 500 g/ha [10, 15]: 0%
- pest or weed control at 62 g/ha [10, 27]: 0%
- pest or weed control at 125 g/ha [10, 27]: 0%
- pest or weed control at 250 g/ha ([10]; pre-emergence, Preemergence): 0%
- pest or weed control at 500 g/ha ([10]; pre-emergence, Preemergence): 0%
- pest or weed control at 62 g/ha [11, 28]: 85%
- pest or weed control at 125 g/ha [11, 28]: 98%
- pest or weed control at 250 g/ha [11, 15]: 100%
- pest or weed control at 500 g/ha [11, 15]: 100%
- pest or weed control at 62 g/ha [11, 29]: 98%
- pest or weed control at 125 g/ha [11, 29]: 100%
- pest or weed control at 250 g/ha ([11]; pre-emergence, Preemergence): 100%
- pest or weed control at 500 g/ha ([11]; pre-emergence, Preemergence): 100%
- plant injury at 62 g/ha ([12]; post-emergence, Postemergence, 62 g ai/ha): 0%
- plant injury at 125 g/ha ([12]; post-emergence, Postemergence, 125 g ai/ha): 0%
- Corn plant response rating (crop injury, 0 = no effect, 100 = complete kill) at 250 g/ha [12, 15]: 5%
- Corn plant response rating (crop injury, 0 = no effect, 100 = complete kill) at 500 g/ha [12, 15]: 5%
- Corn plant response rating (crop injury, 0 = no effect, 100 = complete kill) at 62 g/ha ([12]; pre-emergence, Preemergence, 62 g ai/ha): 0%
- Corn plant response rating (crop injury, 0 = no effect, 100 = complete kill) at 125 g/ha ([12]; pre-emergence, Preemergence, 125 g ai/ha): 0%
- Corn plant response rating (crop injury, 0 = no effect, 100 = complete kill) at 250 g/ha ([12]; pre-emergence, Preemergence): 0%
- Corn plant response rating (crop injury, 0 = no effect, 100 = complete kill) at 500 g/ha ([12]; pre-emergence, Preemergence): 0%
- pest or weed control at 62 g/ha [13, 30]: 70%
- pest or weed control at 125 g/ha [13, 30]: 95%
- pest or weed control at 250 g/ha [13, 15]: 100%
- pest or weed control at 500 g/ha [13, 15]: 100%
- pest or weed control at 62 g/ha [13, 31]: 100%
- pest or weed control at 125 g/ha [13, 31]: 100%
- pest or weed control at 250 g/ha ([13]; pre-emergence, Preemergence): 100%
- pest or weed control at 500 g/ha ([13]; pre-emergence, Preemergence): 100%
